Experiment [1] has as its target T1, human GPR139 receptor (Homo sapiens, UniProt Q6DWJ6).
T1 construct: expressed in transfected cells; host or cells: T-REx-CHO (Thermo Fisher Scientific), doxycycline-induced
T1 sequence (Q6DWJ6 1-353): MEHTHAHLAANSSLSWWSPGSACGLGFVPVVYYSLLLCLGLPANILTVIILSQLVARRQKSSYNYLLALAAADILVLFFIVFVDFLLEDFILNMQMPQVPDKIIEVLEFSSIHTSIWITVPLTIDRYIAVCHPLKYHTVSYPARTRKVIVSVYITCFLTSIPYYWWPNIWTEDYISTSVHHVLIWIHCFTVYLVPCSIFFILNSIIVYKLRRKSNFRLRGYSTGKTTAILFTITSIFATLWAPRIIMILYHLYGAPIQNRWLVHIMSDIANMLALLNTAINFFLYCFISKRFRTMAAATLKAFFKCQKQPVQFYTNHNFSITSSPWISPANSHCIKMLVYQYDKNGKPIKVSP
In words: Measurement of GPR139 Activation Via Calcium Signaling (FLIPR, T-REx-CHO cells). Format: cell-based. The settings on record: T-REx-CHO cells stably expressing human GPR139, 11-point dose response, 10 μM maximum concentration, read-out: GPR139 Potency (pEC50) (converted). The gist of the method:
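Calcium flux read by FLIPR for 1 min after adding compounds (11 concentrations, maximum 10 μM) to doxycycline-induced (2 μg/mL, 17 h) T-REx-CHO cells expressing human GPR139. Cells dye-loaded 40 min at 37 °C in HBSS, 1 mM HEPES pH 7.4 with probenecid; activation reported as pEC50 from four-parameter logistic fit.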

Experiment [2] deals with T1, human GPR139 receptor. Nature of the experiment: GPR139 Competition Binding (membrane-based, tritium-labeled ligand). To be noted: T-REx-CHO membranes with human GPR139; 6.5 nM tritium-labeled ligand; 11-point curve, 30 μM maximum concentration; read-out: GPR139 Binding Affinity (pKi) (converted). The gist of the method: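 Membranes came from doxycycline-induced T-REx-CHO cells expressing human GPR139. They were incubated 20 min at room temperature with 6.5 nM tritiated ligand and compound (11 points, top 30 μM) in HEPES pH 7.3 buffer with MgCl2/CaCl2. Filter-bound counts gave Ki by four-parameter fit, reported as pKi.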

In the case of `Cc1ccc([C@H](C)NC(=O)Cn2nc(C)c3c(c(C)nn3C)c2=O)c(F)c1` [Example 111, (S)—N-(1-(2-fluoro-4-methylphenyl)ethyl)-2-(1,3,7-trimethyl-4-oxo-1,4-dihydro-5H-pyrazolo[3,4-d]pyridazin-5-yl)acetamide], on human GPR139 receptor [1], the EC50 was 148 nM. In addition, the Ki on human GPR139 receptor [2] was 42.7 nM.
As for `Cc1nn(C)c2c(C)nn(CC(=O)N[C@@H](C)c3ccc(OC(F)(F)F)cc3)c(=O)c12` [Example 112, (S)—N-(1-(4-(trifluoromethoxy)phenyl)ethyl)-2-(1,3,7-trimethyl-4-oxo-1,4-dihydro-5H-pyrazolo[3,4-d]pyridazin-5-yl)acetamide], the EC50 at human GPR139 receptor [1] is 617 nM. Also, on human GPR139 receptor [2], the Ki was 263 nM.
As for `Cc1ccc([C@H](C)NC(=O)Cn2nc(C)c3c(c(C)nn3C)c2=O)cc1` [Example 113, (S)—N-(1-(p-tolyl)ethyl)-2-(1,3,7-trimethyl-4-oxo-1,4-dihydro-5H-pyrazolo[3,4-d]pyridazin-5-yl)acetamide], the EC50 at human GPR139 receptor [1] was 151 nM. Moreover, the Ki at human GPR139 receptor [2] is 178 nM.
The corresponding values for `Cc1nn(C)c2c(C)nn(CC(=O)N[C@@H](C)c3ccc(C(F)(F)F)cc3)c(=O)c12` [Example 114, (S)—N-(1-(4-(trifluoromethyl)phenyl)ethyl)-2-(1,3,7-trimethyl-4-oxo-1,4-dihydro-5H-pyrazolo[3,4-d]pyridazin-5-yl)acetamide] are 132 nM and 204 nM.
In the case of `C[C@H](NC(=O)Cn1ncc2c(c(C3CC3)nn2C)c1=O)c1ccc(C(F)(F)F)cc1` [Example 115, (S)-2-(3-cyclopropyl-1-methyl-4-oxo-1,4-dihydro-5H-pyrazolo[3,4-d]pyridazin-5-yl)-N-(1-(4-(trifluoromethyl)phenyl)ethyl)acetamide], the EC50 on human GPR139 receptor [1] is 224 nM. For the same molecule, the Ki on human GPR139 receptor [2] is 58.9 nM.
Regarding `COc1ccc([C@H](C)NC(=O)Cn2ncc3c(c(C4CC4)nn3C)c2=O)cc1` [Example 116, (S)-2-(3-cyclopropyl-1-methyl-4-oxo-1,4-dihydro-5H-pyrazolo[3,4-d]pyridazin-5-yl)-N-(1-(4-methoxyphenyl)ethyl)acetamide], the EC50 at human GPR139 receptor [1] is 74.1 nM. On human GPR139 receptor [2], the Ki is 339 nM.
For `Cc1ccc([C@H](C)NC(=O)Cn2nc(C)c3c(c(C4CC4)nn3C)c2=O)c(F)c1` [Example 117, (S)-2-(3-cyclopropyl-1,7-dimethyl-4-oxo-1,4-dihydro-5H-pyrazolo[3,4-d]pyridazin-5-yl)-N-(1-(2-fluoro-4-methylphenyl)ethyl)acetamide], in that order: 50.1 nM and 2.09 nM.
For `Cc1nn(CC(=O)N[C@@H](C)c2ccc(OC(F)(F)F)cc2)c(=O)c2c(C3CC3)nn(C)c12` [Example 118, (S)-2-(3-cyclopropyl-1,7-dimethyl-4-oxo-1,4-dihydro-5H-pyrazolo[3,4-d]pyridazin-5-yl)-N-(1-(4-(trifluoromethoxy)phenyl)ethyl)acetamide], in that order: 69.2 nM and 23.4 nM.
For the molecule `Cc1ccc([C@H](C)NC(=O)Cn2nc(C)c3c(c(C4CC4)nn3C)c2=O)cc1` [Example 119, (S)-2-(3-cyclopropyl-1,7-dimethyl-4-oxo-1,4-dihydro-5H-pyrazolo[3,4-d]pyridazin-5-yl)-N-(1-(p-tolyl)ethyl)acetamide], on human GPR139 receptor [1], the EC50 is 33.9 nM. The Ki at human GPR139 receptor [2] was 7.94 nM.
On to `Cc1nn(CC(=O)N[C@@H](C)c2ccc(C(F)(F)F)cc2)c(=O)c2c(C3CC3)nn(C)c12` [Example 120, (S)-2-(3-cyclopropyl-1,7-dimethyl-4-oxo-1,4-dihydro-5H-pyrazolo[3,4-d]pyridazin-5-yl)-N-(1-(4-(trifluoromethyl)phenyl)ethyl)acetamide], for which, on human GPR139 receptor [1], the EC50 was 182 nM. For the same molecule, the Ki on human GPR139 receptor [2] is 17.4 nM.
The corresponding values for `COc1ccc([C@H](C)NC(=O)Cn2nc(C)c3c(c(C4CC4)nn3C)c2=O)cc1` [Example 121, (S)-2-(3-cyclopropyl-1,7-dimethyl-4-oxo-1,4-dihydro-5H-pyrazolo[3,4-d]pyridazin-5-yl)-N-(1-(4-methoxyphenyl)ethyl)acetamide] are 129 nM and 74.1 nM.
The corresponding values for `Cc1ccc([C@H](C)NC(=O)Cn2ncc3c(c(C)nn3C3CC3)c2=O)cc1` [Example 122, (S)-2-(1-cyclopropyl-3-methyl-4-oxo-1,4-dihydro-5H-pyrazolo[3,4-d]pyridazin-5-yl)-N-(1-(p-tolyl)ethyl)acetamide] are 83.2 nM and 245 nM.
For `COc1ccc([C@H](C)NC(=O)Cn2nc(C)c3c(c(C)nn3C)c2=O)cc1` [Example 123, (S)—N-(1-(4-methoxyphenyl)ethyl)-2-(1,3,7-trimethyl-4-oxo-1,4-dihydro-5H-pyrazolo[3,4-d]pyridazin-5-yl)acetamide], in that order: 2140 nM and 1450 nM.
For the molecule `Cc1ccc([C@H](C)NC(=O)Cn2ncc3c(c(C4CC4)nn3C)c2=O)c(F)c1` [Example 124, (S)-2-(3-cyclopropyl-1-methyl-4-oxo-1,4-dihydro-5H-pyrazolo[3,4-d]pyridazin-5-yl)-N-(1-(2-fluoro-4-methylphenyl)ethyl)acetamide], on human GPR139 receptor [1], the EC50 was 60.3 nM. In addition, at human GPR139 receptor [2], the Ki was 7.08 nM.
The corresponding values for `C[C@H](NC(=O)Cn1ncc2c(c(C3CC3)nn2C)c1=O)c1ccc(OC(F)(F)F)cc1` [Example 125, (S)-2-(3-cyclopropyl-1-methyl-4-oxo-1,4-dihydro-5H-pyrazolo[3,4-d]pyridazin-5-yl)-N-(1-(4-(trifluoromethoxy)phenyl)ethyl)acetamide] are 123 nM and 47.9 nM.
The corresponding values for `Cc1nn(C)c2cnn(CC(=O)N[C@@H](C)c3c(F)cccc3F)c(=O)c12` [Example 126, (S)—N-(1-(2,6-difluorophenyl)ethyl)-2-(1,3-dimethyl-4-oxo-1,4-dihydro-5H-pyrazolo[3,4-d]pyridazin-5-yl)acetamide] are 324 nM and 955 nM.
`COc1ccc([C@H](C)NC(=O)Cn2ncc3c(c(C)nn3C3CC3)c2=O)c(F)c1` [Example 127, (S)-2-(1-cyclopropyl-3-methyl-4-oxo-1,4-dihydro-5H-pyrazolo[3,4-d]pyridazin-5-yl)-N-(1-(2-fluoro-4-methoxyphenyl)ethyl)acetamide]: at human GPR139 receptor [1], the EC50 is 25.7 nM. Besides, on human GPR139 receptor [2], the Ki was 933 nM.
Consider `Cc1nn(C2CC2)c2cnn(CC(=O)N[C@@H](C)c3ccc(F)cc3F)c(=O)c12` [Example 128, (S)-2-(1-cyclopropyl-3-methyl-4-oxo-1,4-dihydro-5H-pyrazolo[3,4-d]pyridazin-5-yl)-N-(1-(2,4-difluorophenyl)ethyl)acetamide], for which the EC50 on human GPR139 receptor [1] is 67.6 nM. Besides, the Ki on human GPR139 receptor [2] was 257 nM.
The corresponding values for `COc1ccc([C@H](C)NC(=O)Cn2ncc3c(c(C)nn3C3CC3)c2=O)cc1F` [Example 129, (S)-2-(1-cyclopropyl-3-methyl-4-oxo-1,4-dihydro-5H-pyrazolo[3,4-d]pyridazin-5-yl)-N-(1-(3-fluoro-4-methoxyphenyl)ethyl)acetamide] are 53.7 nM and 724 nM.
The corresponding values for `Cc1ccc([C@H](C)NC(=O)Cn2ncc3c(c(C)nn3C3CC3)c2=O)cc1F` [Example 130, (S)-2-(1-cyclopropyl-3-methyl-4-oxo-1,4-dihydro-5H-pyrazolo[3,4-d]pyridazin-5-yl)-N-(1-(3-fluoro-4-methylphenyl)ethyl)acetamide] are 17.8 nM and 38 nM.
Regarding `Cc1nn(C2CC2)c2cnn(CC(=O)N[C@@H](C)c3ccc(F)cc3Cl)c(=O)c12` [Example 131, (S)—N-(1-(2-chloro-4-fluorophenyl)ethyl)-2-(1-cyclopropyl-3-methyl-4-oxo-1,4-dihydro-5H-pyrazolo[3,4-d]pyridazin-5-yl)acetamide], at human GPR139 receptor [1], the EC50 is 41.7 nM. Further, the Ki on human GPR139 receptor [2] was 42.7 nM.
Regarding `COc1cc([C@H](C)NC(=O)Cn2ncc3c(c(C)nn3C3CC3)c2=O)ccc1F` [Example 132, (S)-2-(1-cyclopropyl-3-methyl-4-oxo-1,4-dihydro-5H-pyrazolo[3,4-d]pyridazin-5-yl)-N-(1-(4-fluoro-3-methoxyphenyl)ethyl)acetamide], the EC50 at human GPR139 receptor [1] was 708 nM. Moreover, at human GPR139 receptor [2], the Ki is 2240 nM.
With `Cc1nn(C2CC2)c2cnn(CC(=O)N[C@@H](C)c3c(F)cc(F)cc3F)c(=O)c12` [Example 133, (S)-2-(1-cyclopropyl-3-methyl-4-oxo-1,4-dihydro-5H-pyrazolo[3,4-d]pyridazin-5-yl)-N-(1-(2,4,6-trifluorophenyl)ethyl)acetamide], the EC50 at human GPR139 receptor [1] is 295 nM. Moreover, the Ki at human GPR139 receptor [2] was 316 nM.
Regarding `Cc1cc([C@H](C)NC(=O)Cn2ncc3c(c(C)nn3C3CC3)c2=O)ccc1F` [Example 134, (S)-2-(1-cyclopropyl-3-methyl-4-oxo-1,4-dihydro-5H-pyrazolo[3,4-d]pyridazin-5-yl)-N-(1-(4-fluoro-3-methylphenyl)ethyl)acetamide], the EC50 on human GPR139 receptor [1] was 24 nM. At human GPR139 receptor [2], the Ki was 589 nM.

(Values after patent publication US12370192B2, “Azole-fused pyridazin-3(2H)-one derivatives” (TAKEDA PHARMACEUTICAL COMPANY LIMITED, priority 2019, dated 2025).)
